The target of this test is human factor IXa (Homo sapiens (Human), UniProt P00740). In words: biochemical. Conditions: read-out: Imax IXa (percentage inhibition at the maximum concentration tested).
human factor IXa, sequence (P00740 whole entry, looked up): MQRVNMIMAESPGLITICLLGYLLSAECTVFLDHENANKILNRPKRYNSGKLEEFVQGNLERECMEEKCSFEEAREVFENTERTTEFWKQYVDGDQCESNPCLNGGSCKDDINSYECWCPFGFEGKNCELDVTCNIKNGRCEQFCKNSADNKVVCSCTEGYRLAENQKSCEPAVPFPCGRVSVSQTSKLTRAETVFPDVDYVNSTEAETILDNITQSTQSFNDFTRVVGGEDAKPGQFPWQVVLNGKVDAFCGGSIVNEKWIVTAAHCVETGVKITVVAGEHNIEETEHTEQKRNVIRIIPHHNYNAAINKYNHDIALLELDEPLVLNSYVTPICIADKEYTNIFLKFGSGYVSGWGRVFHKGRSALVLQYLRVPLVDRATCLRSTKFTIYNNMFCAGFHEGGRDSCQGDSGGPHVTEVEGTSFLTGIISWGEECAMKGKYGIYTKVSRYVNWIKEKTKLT
human factor IXa, sequence (P00740 whole entry partner, looked up): as the sequence (P00740 whole entry, looked up) above

Take `COC(=O)[C@@H](Cc1cc2ccnc(N)c2cc1C(F)(F)F)N1CC[C@H](NS(=O)(=O)c2cnc(N3CCC(F)(F)C3)s2)C1=O` [Compound 90, (R)-3-(1-Amino-7-trifluoromethyl-isoquinolin-6-yl)-2-{(S)-3-[2-(3,3-difluoro-pyrrolidin-1-yl)-thiazole-5-sulfonylamino]-2-oxo-pyrrolidin-1-yl}-propionic acid methyl ester]: the inhibition at 5 µM turned out to be 41%.

The values are drawn from patent US9150544B2 (priority 2011, dated 2015).
